One data set addresses T1, myeloperoxidase (Homo sapiens, UniProt P05164).
T1 construct: Homogenates were centrifuged at 1,300×g for ten (10) minutes and the supernatant extracts were kept during the course of analysis; from tissue; host or cells: human sputum / oral fluid-cell harvest (neutrophil-rich) homogenate supernatants
T1 sequence (P05164 49-745): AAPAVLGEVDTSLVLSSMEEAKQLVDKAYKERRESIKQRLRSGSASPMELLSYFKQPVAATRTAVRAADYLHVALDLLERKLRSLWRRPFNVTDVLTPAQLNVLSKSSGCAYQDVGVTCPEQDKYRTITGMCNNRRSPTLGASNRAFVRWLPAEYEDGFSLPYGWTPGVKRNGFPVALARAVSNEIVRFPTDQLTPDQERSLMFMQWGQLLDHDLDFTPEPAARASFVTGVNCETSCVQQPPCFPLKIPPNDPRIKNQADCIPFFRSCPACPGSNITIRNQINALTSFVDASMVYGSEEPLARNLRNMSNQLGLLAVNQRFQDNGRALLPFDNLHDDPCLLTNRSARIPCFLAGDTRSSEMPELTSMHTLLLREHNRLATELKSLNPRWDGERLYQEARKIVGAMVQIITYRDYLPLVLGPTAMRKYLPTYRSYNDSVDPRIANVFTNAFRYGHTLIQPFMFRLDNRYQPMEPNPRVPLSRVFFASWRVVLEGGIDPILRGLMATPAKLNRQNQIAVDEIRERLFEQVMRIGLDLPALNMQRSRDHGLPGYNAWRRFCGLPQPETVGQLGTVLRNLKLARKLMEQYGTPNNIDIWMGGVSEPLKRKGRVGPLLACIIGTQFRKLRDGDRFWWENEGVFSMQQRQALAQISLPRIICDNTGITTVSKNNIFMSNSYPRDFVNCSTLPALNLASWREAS
The data set can be described thus: NADH2-NDGA-myeloperoxidase spectrophotometric assay of sputum / oral fluid-cell harvest supernatant extracts. It counts as biochemical. As to the method:
Aliquots of fresh human oral fluid-cell harvests as exemplified above or fresh human sputum collected by the donors over a twenty-four (24) hour period were disrupted employing either Ten Broeck glass homogenizers or the Virtis homogenizer. Homogenates were centrifuged at 1,300×g for ten (10) minutes and the supernatant extracts were kept during the course of analysis at zero degrees centigrade (0° C.). Other reactants were incubated at thirty-five degrees centigrade (35° C.). Reduced nicotinamide-adenine dinucleotide oxidase and norhydroguaiaretic acid-myeloperoxidase activities were followed at 340 mμ or (nm) employing the Beckman Model DU Spectrophotometer temperature regulated at thirty-five degrees centigrade (35° C.). All specific reactions were run as duplicate assays.
Although this oxidation was very small under the conditions of experiment, an interaction correction factor was determined and applied to all reduced nicotinamide-adenine dinucleotide-nordihydroguaiaretic acid-mycloperoxidase assay reactions.
The velocity constants for the myeloperoxidase reactions behaved and were computed in accord with zero order reaction kinetics. […] In most instances, the activities followed first order reaction kinetics for a short interval and then ceased abruptly. The latter may be due to the presence or accumulation of variable concentrations of an unidentified inhibitor or inhibitors in the supernatants. Since in all cases the oxidase activities were very slow relative to the myeloperoxidase activities, the difference in optical density over the course of the reactions (up to ten (10) minutes) for the oxidase system were computed in the same manner as the data for the rapid myeloperoxidase system. Thus, all velocity constants were expressed in μ Moles of reduced nicotinamide-adenine dinucleotide oxidized per minute per ml. of oral fluid-cell harvest or sputum. The small oxidase activities were applied as a correction factor in the computation of all myeloperoxidase velocity constants.
The pH optimum of the myeloperoxidase system was determined. When fresh nordihydroguaiaretic acid solutions were prepared and interaction rates with reduced nicotinamide-adenine dinucleotide were subtracted as controls from oral lavage and sputum supernatant myeloperoxidase activities, the net velocity constants were zero (0). On the other hand, five (5) hour old nordihydroguaiaretic acid solutions yielded optimal activities at approximately pH 7.4. Subsequent experiments uniformly were carried out at pH 7.0 using five (5) hour old solutions to minimize the rates of the auto oxidation of nordihydroguaiaretic acid and oxidation of reduced nicotinamide-adenine dinucleotide by nordihydroguaiaretic acid when employing alkaline pH's.

Another data set deals with jack bean urease (Canavalia ensiformis, UniProt P07374). Particulars: cited from earlier work.
The subject of a further data set is plant lipoxidase. Particulars: cited from earlier work.
For another data set, the system named is human whole saliva. The following applies: low concentrations; cited from earlier work.
The conditions of data set [1]: cited from earlier work.

Molecules are shown by their SMILES. Where two headings read alike, the source gives them in different places.

jack bean urease, sequence (P07374 whole entry, looked up): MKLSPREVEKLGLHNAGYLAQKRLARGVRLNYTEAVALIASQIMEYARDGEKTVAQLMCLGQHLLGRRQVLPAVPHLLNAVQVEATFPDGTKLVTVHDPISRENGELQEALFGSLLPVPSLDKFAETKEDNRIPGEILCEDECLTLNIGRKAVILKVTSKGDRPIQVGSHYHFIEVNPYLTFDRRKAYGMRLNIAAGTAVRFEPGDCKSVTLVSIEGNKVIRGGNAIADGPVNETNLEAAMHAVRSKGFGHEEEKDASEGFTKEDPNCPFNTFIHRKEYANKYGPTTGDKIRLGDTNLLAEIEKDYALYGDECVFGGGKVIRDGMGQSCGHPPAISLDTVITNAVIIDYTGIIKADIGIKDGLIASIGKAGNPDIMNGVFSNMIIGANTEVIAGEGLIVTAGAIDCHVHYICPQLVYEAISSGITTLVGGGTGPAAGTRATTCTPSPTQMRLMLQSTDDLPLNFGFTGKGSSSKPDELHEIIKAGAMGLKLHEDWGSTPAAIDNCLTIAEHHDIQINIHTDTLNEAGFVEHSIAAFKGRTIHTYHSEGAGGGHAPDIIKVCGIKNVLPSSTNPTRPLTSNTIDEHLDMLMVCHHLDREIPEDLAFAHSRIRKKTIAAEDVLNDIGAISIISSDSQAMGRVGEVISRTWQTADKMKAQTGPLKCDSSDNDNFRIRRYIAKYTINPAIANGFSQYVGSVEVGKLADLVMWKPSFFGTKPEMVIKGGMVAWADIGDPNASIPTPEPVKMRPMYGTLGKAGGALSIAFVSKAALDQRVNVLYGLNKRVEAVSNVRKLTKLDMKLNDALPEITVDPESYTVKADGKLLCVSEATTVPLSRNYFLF

As to `CC(Cc1ccc(O)c(O)c1)C(C)Cc1ccc(O)c(O)c1` (stereo not drawn) [NDGA, beta, gamma-dimethyl-alpha, ortho-bis (3,4 dihydroxiphenyl) butane], the NADH2-NDGA-MPO velocity constant is given as 0.00 μ Moles NADH2 oxidized per minute per ml. of sputum supernatant on myeloperoxidase (NDGA solution aged 0 minutes); 8.97 μ Moles NADH2 oxidized per minute per ml. of sputum supernatant at myeloperoxidase (NDGA solution aged 60 minutes); 14.43 μ Moles NADH2 oxidized per minute per ml. of sputum supernatant on myeloperoxidase (NDGA solution aged 120 minutes); 27.65 μ Moles NADH2 oxidized per minute per ml. of sputum supernatant at myeloperoxidase (NDGA solution aged 180 minutes); 28.89 μ Moles NADH2 oxidized per minute per ml. of sputum supernatant on myeloperoxidase (NDGA solution aged 240 minutes); 32.40 μ Moles NADH2 oxidized per minute per ml. of sputum supernatant at myeloperoxidase (NDGA solution aged 337 minutes). Besides, the values for the NADH2-NDGA-MPO velocity constant on myeloperoxidase (NDGA solution aged 397 minutes), at myeloperoxidase (NDGA solution aged 440 minutes) and on myeloperoxidase (NDGA solution aged 485 minutes) were 41.39 μ Moles NADH2 oxidized per minute per ml. of sputum supernatant, 44.21 μ Moles NADH2 oxidized per minute per ml. of sputum supernatant and 46.85 μ Moles NADH2 oxidized per minute per ml. of sputum supernatant, respectively. Moreover, the “inhibition of jack bean urease” value on jack bean urease is on record as 99%. Moreover, in the data set on plant lipoxidase, the “inhibition of plant lipoxidase-catalyzed oxidation and auto-oxidation of linoleate” value is on record as “well-known inhibitor”. Further, in the data set with human whole saliva, the “inhibition of aerobic and anaerobic glycolysis” value was “markedly inhibited”. Moreover, in the data set with human whole saliva, the “inhibition of endogenous and glucose dependent respiration” value is reported as “nearly as effectively inhibited”. Moreover, the solubility result in data set [1] (dilute hydrochloric acid) is on record as “insoluble”; in data set [1] (ethanol, methanol, ether, acetone, glycerol, propylene glycol, dilute alkali), “soluble”; in data set [1] (hot water and chloroform), “slightly soluble”.
